Tests used:
Bcl-xL protein = molecular target: T1, Bcl-xL protein (Homo sapiens, UniProt Q07817, N197C); experiment: Fluorescence quenching assay (PUMA peptide displacement); format: binding; conditions: 1 nM protein, 400 nM peptide, 2 hours at 23° C.; KI determined from IC50
T1 construct: (2-197)[N197C]; His-His (two His8 stretches joined by a Gly/Ala/Ser/Thr linker)
Text: Fluorescence quenching assay measures the change in fluorescence intensity of C-terminally Cy5-labeled BCL-xL protein, His-His-(EK)-hs ? (2-197)[N197C] (UniProtKB® primary accession number Q07817-1) having an amino acid sequence (SEQ ID:03): [[…] […] […] […] […]] which is linked in C-terminal region to the amino acid X which corresponds to a cysteine labeled on the sulfur with Sulfo-Cyanine5 from Lumiprobe GmbH catalogue number 13380, upon binding of a C-terminally labeled peptide derived from PUMA (UniProtKB® primary accession number Q9BXH1) having an aminoacid sequence (SEQ ID:04): [[…]] which is linked in C-terminal region to the amino acid X′ where X′ is cysteine labeled on the sulfur with TQ5WS from AAT Bioquest catalogue number 2079.
The addition of a compound which binds competitively to the same site as the peptide will result in an increase in the fluorescence intensity of the protein due to displacement of the fluorescence quencher.
An 11-point serial dilution of each compound was prepared in DMSO the final buffer conditions were 10 mM 4-(2-hydroxyethyl)-1-piperazineethanesulfonic acid [HEPES], 150 mM NaCl, 0.05% Tween 20, pH 7.4 and 5% DMSO. The final protein concentration in the assay was 1 nM with the peptide present at 400 nM. The experiments were incubated for 2 hours at 23° C. before fluorescence intensity was measured on a Biotek SynergyNeo plate reader (Excitation 620 nm, emission 680 nm). […] The KI values were determined from the IC50 values according to Cer et al, Nucleic Acids Res, 2009, Jul. 1: 37(WebServer issue): W441-W445.

H146 cells = experiment: H146 cell viability, MTT assay; format: cell-based; conditions: Homo sapiens, NCI-H146, 48 h, 48 h exposure
In short: (§1)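 Viability read by MTT reduction (OD 540 nm after overnight SDS/HCl lysis) after 48 h compound treatment of cells in RPMI 1640/10% FBS. Triplicates at nine concentrations, 3.16-fold apart; four-parameter curve fitting yields IC50.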

MOLT-4 cells = experiment: MOLT-4 cell viability, MTT assay; format: cell-based; conditions: Homo sapiens, MOLT-4, 48 h, 48 h exposure
In short: as §1

T1 sequence (Q07817 2-197 N197C): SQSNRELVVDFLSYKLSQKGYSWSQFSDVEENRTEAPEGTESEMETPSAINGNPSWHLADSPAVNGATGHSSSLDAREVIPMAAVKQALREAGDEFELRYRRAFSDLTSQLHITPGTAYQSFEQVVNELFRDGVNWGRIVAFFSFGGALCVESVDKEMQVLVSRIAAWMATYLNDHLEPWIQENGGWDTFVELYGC

Ki (Bcl-xL protein) [nM] | IC50 (H146 cells) [nM] | IC50 (MOLT-4 cells) [nM] | Structure (SMILES)
0.001 | 3240 | 2880 | CNCC#Cc1ccc(OCCCc2sc(N(CCCCC[N+](C)(C)CCCS(=O)(=O)[O-])c3cc(C)c(Nc4nc5ccccc5s4)nn3)nc2C(=O)O)c(F)c1 [Example 212, 3-[5-[[6-(1,3-Benzothiazol-2-ylamino)-5-methyl-pyridazin-3-yl]-[4-carboxy-5-[3-[2-fluoro-4-[3-(methylamino)prop-1-ynyl]phenoxy]propyl]thiazol-2-yl]amino]pentyl-dimethyl-ammonio]propane-1-sulfonate]
0.0023 | ≤ 5.93 | 0.374 | Cc1cc(N(C)c2nc(C(=O)O)c(CCCOc3ccc(C#CC(C)N(C)C)cc3F)s2)nnc1Nc1nc2ccccc2s1 (centres unmarked) [Example 205, 2-[[6-(1,3-Benzothiazol-2-ylamino)-5-methyl-pyridazin-3-yl]-methyl-amino]-5-[3-[4-[3-(dimethylamino)but-1-ynyl]-2-fluoro-phenoxy]propyl]thiazole-4-carboxylic acid]
0.0011 | 124 | 76.2 | CCN(CC)CCNCCCCN(c1cc(C)c(Nc2nc3ccccc3s2)nn1)c1nc(C(=O)O)c(CCCOc2ccc(C#CCN(C)C)cc2F)s1 [Example 176, 2-[[6-(1,3-Benzothiazol-2-ylamino)-5-methyl-pyridazin-3-yl]-[4-[2-(diethylamino)ethylamino]butyl]amino]-5-[3-[4-[3-(dimethylamino)prop-1-ynyl]-2-fluoro-phenoxy]propyl]thiazole-4-carboxylic acid]
0.22 | > 30000 |  | Cc1cc(N(CCCC(O)C[N+](C)(C)CCCS(=O)(=O)[O-])c2nc(C(=O)O)c(CCCOc3ccc(/C=C/C=O)cc3F)s2)nnc1Nc1nc2ccccc2s1 (centres unmarked) [Example 228, 3-[[5-[[6-(1,3-Benzothiazol-2-ylamino)-5-methyl-pyridazin-3-yl]-[4-carboxy-5-[3-[2-fluoro-4-[(E)-3-oxoprop-1-enyl]phenoxy]propyl]thiazol-2-yl]amino]-2-hydroxy-pentyl]-dimethyl-ammonio]propane-1-sulfonate]
0.0018 |  | 750 | CNCC#Cc1ccc(OCCCc2sc(N(CCCP(=O)(O)O)c3cc(C)c(Nc4nc5ccccc5s4)nn3)nc2C(=O)O)c(F)c1 [Example 237, 2-[[6-(1,3-Benzothiazol-2-ylamino)-5-methyl-pyridazin-3-yl]-(3-phosphonopropyl)amino]-5-[3-[2-fluoro-4-[3-(methylamino)prop-1-ynyl]phenoxy]propyl]thiazole-4-carboxylic acid]
0.0027 |  | 314 | Cc1cc(N(CCCP(=O)(O)O)c2nc(C(=O)O)c(CCCOc3ccc(C#CCN(C)C)cc3F)s2)nnc1Nc1nc2ccccc2s1 [Example 239, 2-({6-[(1,3-Benzothiazol-2-yl)amino]-5-methylpyridazin-3-yl}(3-phosphonopropyl)amino)-5-(3-{4-[3-(dimethylamino)prop-1-yn-1-yl]-2-fluorophenoxy}propyl)-1,3-thiazole-4-carboxylic acid]
0.0045 |  | 149 | Cc1cc(N(CCCC(=O)O)c2nc(C(=O)O)c(CCCOc3ccc(C#CCN(C)C)cc3F)s2)nnc1Nc1nc2ccccc2s1 [Example 238, 2-({6-[(1,3-Benzothiazol-2-yl)amino]-5-methylpyridazin-3-yl}(3-carboxypropyl)amino)-5-(3-{4-[3-(dimethylamino)prop-1-yn-1-yl]-2-fluorophenoxy}propyl)-1,3-thiazole-4-carboxylic acid]
0.0023 |  | 0.255 | Cc1cc(N(C)c2ccc(-c3cnn(CC45CC6(C)CC(C)(C4)CC(OCCNCCCO)(C6)C5)c3C)c(C(=O)O)n2)nnc1Nc1nc2ccccc2s1 [Example 268, 6-[[6-(1,3-benzothiazol-2-ylamino)-5-methyl-pyridazin-3-yl]-methyl-amino]-3-[1-[[3-[2-(3-hydroxypropylamino)ethoxy]-5,7-dimethyl-1-adamantyl]methyl]-5-methyl-pyrazol-4-yl]pyridine-2-carboxylic acid]
0.0073 |  | 1320 | Cc1cc(N(CCCS(=O)(=O)O)c2nc(C(=O)O)c(CCCOc3ccc(C#CCN(C)C)cc3F)s2)nnc1Nc1nc2ccccc2s1 [Example 240, 2-({6-[(1,3-Benzothiazol-2-yl)amino]-5-methylpyridazin-3-yl}(3-sulfopropyl)amino)-5-(3-{4-[3-(dimethylamino)prop-1-yn-1-yl]-2-fluorophenoxy}propyl)-1,3-thiazole-4-carboxylic acid]
0.0013 | 43.9 |  | CNCC#Cc1cc(F)c(OCCCc2sc(N(C)c3cc(C)c(Nc4nc5ccccc5s4)nn3)nc2C(=O)O)cn1 [Example 197, 2-({6-[(1,3-Benzothiazol-2-yl)amino]-5-methylpyridazin-3-yl}(methyl)amino)-5-[3-({4-fluoro-6-[3-(methylamino)prop-1-yn-1-yl]pyridin-3-yl}oxy)propyl]-1,3-thiazole-4-carboxylic acid]
0.005 |  | 112 | Cc1cc(N(CCCCC(=O)O)c2nc(C(=O)O)c(CCCOc3ccc(C#CCN(C)C)cc3F)s2)nnc1Nc1nc2ccccc2s1 [Example 243, 2-({6-[(1,3-Benzothiazol-2-yl)amino]-5-methylpyridazin-3-yl}(4-carboxybutyl)amino)-5-(3-{4-[3-(dimethylamino)prop-1-yn-1-yl]-2-fluorophenoxy}propyl)-1,3-thiazole-4-carboxylic acid]
0.003 |  | 0.199 | Cc1cc(N(C)c2ccc(-c3cnn(CC45CC6(C)CC(C)(C4)CC(OCCN4CCOCC4)(C6)C5)c3C)c(C(=O)O)n2)nnc1Nc1nc2ccccc2s1 [Example 270, 6-[[6-(1,3-benzothiazol-2-ylamino)-5-methyl-pyridazin-3-yl]-methyl-amino]-3-[1-[[3,5-dimethyl-7-(2-morpholinoethoxy)-1-adamantyl]methyl]-5-methyl-pyrazol-4-yl]pyridine-2-carboxylic acid]
0.0035 |  | 802 | Cc1cc(N(CCCCC[N+](C)(C)CC(=O)O)c2nc(C(=O)[O-])c(CCCOc3ccc(C#CCN(C)C)cc3F)s2)nnc1Nc1nc2ccccc2s1 [Example 227, 2-[[6-(1,3-Benzothiazol-2-ylamino)-5-methyl-pyridazin-3-yl]-[5-[carboxymethyl(dimethyl)ammonio]pentyl]amino]-5-[3-[4-[3-(dimethylamino)prop-1-ynyl]-2-fluoro-phenoxy]propyl]thiazole-4-carboxylate]
0.0022 |  | 0.246 | Cc1cc(N(C)c2ccc(-c3cnn(CC45CC6(C)CC(C)(C4)CC(OCCN(C)C)(C6)C5)c3C)c(C(=O)O)n2)nnc1Nc1nc2ccccc2s1 [Example 250, 6-[{6-[(1,3-benzothiazol-2-yl)amino]-5-methylpyridazin-3-yl}(methyl)amino]-3-[1-{{3-[2-(dimethylamino)ethoxy]-5,7-dimethyladamantan-1-yl}methyl)-5-methyl-1H-pyrazol-4-yl]pyridine-2-carboxylic acid]
0.07 |  | 31.7 | C#CCCCN(c1cc(C)c(Nc2nc3ccccc3s2)nn1)c1nc(C(=O)O)c(CCCOc2ccc(C#CCNC)cc2F)s1 [Example 253, 2-[{6-[(1,3-benzothiazol-2-yl)amino]-5-methylpyridazin-3-yl}(pent-4-yn-1-yl)amino]-5-(3-{2-fluoro-4-[3-(methylamino)prop-1-yn-1-yl]phenoxy}propyl)-1,3-thiazole-4-carboxylic acid]
0.016 |  | 43.8 | CNCC#Cc1ccc(OCCCc2sc(N(CCCCCN=[N+]=[N-])c3cc(C)c(Nc4nc5ccccc5s4)nn3)nc2C(=O)O)c(F)c1 [Example 267, 2-[5-azidopentyl-[6-[(1,3-benzothiazol-2-yl)amino]-5-methyl-pyridazin-3-yl]amino]-5-[3-[2-fluoro-4-[3-(methylamino)prop-1-ynyl]phenoxy]propyl]-1,3-thiazole-4-carboxylic acid]

Structure (SMILES) | Ki (Bcl-xL protein) [nM] | IC50 (H146 cells) [nM] | IC50 (MOLT-4 cells) [nM]
Cc1cc(N(CCCC(O)C[N+]23CCC(CC2)CC3)c2nc(C(=O)[O-])c(CCCOc3ccc(C#CCN(C)C)cc3F)s2)nnc1Nc1nc2ccccc2s1 (centres unmarked) [Example 215, 2-[[6-(1,3-Benzothiazol-2-ylamino)-5-methyl-pyridazin-3-yl]-(4-hydroxy-5-quinuclidin-1-ium-1-yl-pentyl)amino]-5-[3-[4-[3-(dimethylamino)prop-1-ynyl]-2-fluoro-phenoxy]propyl]thiazole-4-carboxylate] | 0.0031 | 174 | 406

Source: patent US12649733B2, “3,6-diamino-pyridazin-3-yl derivatives, pharmaceutical compositions containing them and their uses as pro-apoptotic agents” (LES LABORATOIRES SERVIER, priority 2019, dated 2026)
